Assay [1] has as its system recurrent or metastatic cervical cancer that has progressed after first-line platinum-based treatment.
Assay [2] deals with cervical cancer. To be noted: patient population of 60% squamous histology; cited from earlier work.
The test system of assay [3] is cervical cancer. To be noted: 5/19; squamous histology only; cited from earlier work.
For assay [4], the system named is cervical cancer. To be noted: 12/98; cited from earlier work.
Setting [5] is: subgroup with IC chemotherapy selected prior to randomisation: Gemcitabine (n = 108 vs 121).
The mark [6] stands for this setting: subgroup with IC chemotherapy selected prior to randomisation: Irinotecan (n = 26 vs 19).

Read-outs that look alike come from different tables or passages of the source.

For the molecule `Nc1ccn([C@@H]2O[C@H](CO)[C@@H](O)C2(F)F)c(=O)n1` [gemcitabine, reference compound], in assay [1] (setting [5]), the “Median OS (95% CI)” value is 9.0 (7.0-10.6) months, the “Median PFS (95% CI)” value was 2.8 (2.1-3.9) months and the ORR was found to be 5.0%.
Regarding `CCc1c2c(nc3ccc(OC(=O)N4CCC(N5CCCCC5)CC4)cc13)-c1cc3c(c(=O)n1C2)COC(=O)[C@]3(O)CC` [irinotecan, reference compound], in assay [1] (setting [6]), the “Median OS (95% CI)” value is reported as 11.8 (6.9-14.9) months, the “Median PFS (95% CI)” value is recorded as 4.2 (1.6-8.3) months and the ORR worked out at 15.8%.
Take nivolumab: the response rate with cervical cancer [2] is listed as 4%. Also, the objective response rate with cervical cancer [3] is 26.3%.
With pembrolizumab, the “ORR in the cervical cancer cohort” value with cervical cancer [4] is given as 12.2%.

The values above are taken from patent publication US20210403567A1, “METHODS OF TREATING CERVICAL CANCER BY ADMINISTERING A PD-1 INHIBITOR” (priority 2020, published 2021).
